Reference: BindingDB's records for doi:10.1021/bi7000505 (Wyeth Research, 2007)

Biological target: T1, Caspase-3 (Homo sapiens, UniProt P42574)
T1 sequence (P42574 whole entry): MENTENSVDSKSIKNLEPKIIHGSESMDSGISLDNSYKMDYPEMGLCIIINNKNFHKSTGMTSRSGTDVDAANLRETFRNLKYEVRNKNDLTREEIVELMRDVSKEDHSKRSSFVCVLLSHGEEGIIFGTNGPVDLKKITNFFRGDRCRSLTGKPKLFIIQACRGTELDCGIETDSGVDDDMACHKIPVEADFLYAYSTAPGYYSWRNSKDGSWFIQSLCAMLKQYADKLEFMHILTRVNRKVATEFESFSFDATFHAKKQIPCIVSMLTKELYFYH

Row | Ki [nM] | Structure (SMILES)
1 | 16.1 | O=C1Nc2ccc(S(=O)(=O)N3CCC[C@H]3COc3cccnc3)cc2C1=O [5-{[(2S)-2-[(pyridin-3-yloxy)methyl]pyrrolidine-1-]sulfonyl}-2,3-dihydro-1H-indole-2,3-dione]
2 | 165 | O=C(O)C[C@H](NC(=O)[C@@H](c1ccccc1)n1cccc(NC(=O)c2ccc3ccccc3c2)c1=O)C(=O)COc1ccccc1 [(3S)-3-[(1R)-1-[3-(naphthalene-2-amido)-2-oxo-1,2-dihydropyridin-1-yl]-1-phenylacetamido]-4-oxo-5-phenoxypentanoic acid]
3 | 11 | CN1C(=O)C(=O)c2cc(S(=O)(=O)N3CCC[C@H]3COc3ccccc3)ccc21 [(S)-1-Methyl-5-{1-[2-(phenoxymethyl)pyrrolidinyl]sulfonyl}isatin]
4 | 2.5 | O=C1C(=O)N(Cc2ccccc2)c2ccc(S(=O)(=O)N3CCC[C@H]3COc3ccccc3)cc21 [JMC522188 Compound 2]
